Experimental findings from paper PMC12603985, “Dissimilar Reactions and Enzymes for Psilocybin Biosynthesis in Inocybe and Psilocybe Mushrooms” (Angewandte Chemie (International Ed. in English), 2025) are described below.

Type in all cases: biochemical, Inocybe corydalina
The test system of assay [1] is T1, IpsM1.
T1 construct: heterologously produced and purified
Nature of the assay: Michaelis-Menten kinetics of methyl transfer. The note with it: methyl donor SAM; product assays in TRIS-HCl pH 7.5.

The test system of assay [2] is T2, IpsK.
T2 construct: N-terminally hexahistidine-tagged; recombinant, purified
As to the kind of experiment: Michaelis-Menten kinetics of phosphotransfer. Conditions: phosphate donor ATP; product assays in TRIS-HCl pH 7.5.

Assay [3] has as its system T3, IpsM2.
T3 construct: heterologously produced and purified
Nature of the assay: Michaelis-Menten kinetics of methyl transfer. Conditions: methyl donor SAM; product assays in TRIS-HCl pH 7.5.

The subject of assay [4] is T4, IpsD.
T4 construct: obligate dimer predicted by the model; PLP lysine K300
As to the kind of experiment: Michaelis-Menten kinetics of decarboxylation. Conditions: PLP-dependent.

Broadly, the Km is the substrate concentration at which the rate is half of its maximum. For `CNCCc1c[nH]c2cccc(O)c12` [compound 10, 10], the Km in assay [1] was 138 µM; in assay [2], 337 µM; in assay [3], 433 µM.

Consider `CN(C)CCc1c[nH]c2cccc(O)c12` [compound 4, psilocin], for which the Km in assay [2] is 20.5 µM.

Regarding `N[C@@H](Cc1c[nH]c2cccc(O)c12)C(=O)O` [compound 7, 4-hydroxy-L-tryptophan], the Km in assay [4] stood at 66 µM.

Take `NCCc1c[nH]c2cccc(O)c12` [compound 5, 4-hydroxytryptamine]: the Km in assay [1] came out at 101 µM; in assay [3], 64.5 µM.
